According to patent US20240175019A1, “Skeletal Muscle Delivery Platforms and Methods of Use” (Arrowhead Pharmaceuticals, Inc., priority 2020, published 2024):
Oligonucleotides are written 5' to 3', each unit as a sugar letter and its base; * is a phosphorothioate linkage, no mark a phosphodiester; rarer units and linkages stand in square brackets, end groups in braces. Plain capitals give the bases only. {NH2-C6} = C6 amine reactive group for conjugation; {Alk-cyHex} = alkyne-cyclohexyl conjugation group; [invAb] = inverted abasic deoxyribose residue; [C6-SS-C6] = C6-disulfide-C6 linker; d = 2'-deoxy (DNA); m = 2'-O-methyl; f = 2'-fluoro

System: myostatin mRNA
Assay: MSTN expression in triceps of mice by qPCR TaqMan assay (Example 7)
Format: in vivo
Details: Day 22, mice, 3 mg/kg single injection on Day 1, n=4
Description: On Study Day 1, mice were injected with either isotonic saline (vehicle control) or 3 mg/kg (mpk) of RNAi agent formulated in isotonic saline according to the following dosing Groups:
The RNAi agents in Example 7 were synthesized having nucleotide sequences directed to target the MSTN gene, and groups 1 and 3 included a functionalized amine reactive group (NH2-C6) at the 5′ terminal end of the sense strand to facilitate conjugation to L4 which could then be conjugated to the small molecule targeting ligand Compound 45b. Group 2 included an (Alk-cyHex)s (see Table 28 for structure details) which was conjugated to the small molecule targeting ligand Compound 45b. The myostatin RNAi agents further included a PEG48+C22 PK/PD modulator, which was linked to the 3′ end of the sense strand.
Four (4) mice were dosed in each Group (n=4). Mice were sacrificed on study day 22, and total myostatin mRNA was isolated from the triceps. Triceps were harvested from right front limb. Each sample was snap-frozen in percellys tubes and stored in a −80° C. freezer until assays were completed. Relative MSTN expression was determined by qPCR TaqMan Assay on muscle tissue.

AD06916: AS: usGfsusUfaCfagcaaGfaUfcAfuGfgCfsc; SS: (NH2-C6)s(invAb)sggccaugaUfCfUfugcuguaacas(invAb)s(C6-SS-C6)dT (antisense mU*fG*mU*fUmAfCmAmGmCmAmAfGmAfUmCfAmUfGmGfC*mC; sense {NH2-C6}*[invAb]*mGmGmCmCmAmUmGmAfUfCfUmUmGmCmUmGmUmAmAmCmA*[invAb]*[C6-SS-C6]dT; siRNA; Compound 45b ligand via L4 on sense 5' amine, PEG48+C22 at sense 3')
Average relative MSTN expression, Relative Expression: 0.295

AD06912: AS: usGfsusUfaCfagcaaGfaUfcAfuGfgCfsc; SS: (Alk-cyHex)s(invAb)sggccaugaUfCfUfugcuguaacas(invAb)(C6-SS-C6)dT (antisense mU*fG*mU*fUmAfCmAmGmCmAmAfGmAfUmCfAmUfGmGfC*mC; sense {Alk-cyHex}*[invAb]*mGmGmCmCmAmUmGmAfUfCfUmUmGmCmUmGmUmAmAmCmA*[invAb][C6-SS-C6]dT; siRNA; Compound 45b ligand on sense 5' Alk-cyHex, PEG48+C22 at sense 3')
Average relative MSTN expression, Relative Expression: 0.253

AD06326: AS: usGfsusUfaCfagcaaGfaUfcAfuGfgCfsc; SS: (NH2-C6)s(invAb)sggccaugaUfCfUfugcuguaacas(invAb)(C6-SS-C6)dT (antisense mU*fG*mU*fUmAfCmAmGmCmAmAfGmAfUmCfAmUfGmGfC*mC; sense {NH2-C6}*[invAb]*mGmGmCmCmAmUmGmAfUfCfUmUmGmCmUmGmUmAmAmCmA*[invAb][C6-SS-C6]dT; siRNA; Compound 45b ligand via L4 on sense 5' amine, PEG48+C22 at sense 3')
Average relative MSTN expression, Relative Expression: 0.296
